Laboratory results: US20260115162A1, “COMPOSITION OR ASSOCIATION OF COMPOUNDS PREFERABLY FOR USE IN THE TREATMENT OF NERVOUS DISEASES IN PARTICULAR NEURODEGENERATIVE DISEASES, METHOD FOR THE PREPARATION OF SUCH COMPOSITION OR ASSOCIATION OF COMPOUNDS AND USES THEREOF” (PHARMACEUTICA SAN MARCO S.R.L., priority 2022, published 2026)
Entries after “also recorded” stand apart in the source; their conditions may differ. Where two headings read alike, the source gives them in different places.

Experiments:
intact mice = test: Behavioral tests on intact animals (open field, freezing); assay type: in vivo; conditions: for effect in behavioral tests, individually: mouse, in vivo; for lowest dose showing antidepressant effects: intact mice, preliminary experiments (unpublished observations)
Procedure: The trials were performed at the Department of Clinical and Experimental Medicine of the University of Foggia according to the following rationale. • 1. In the present mouse model of beta-amyloid toxicity, using validated tests in mice, we evaluated the behaviors: • a. antidepressant: Tail Suspension Test (TST); Forced Swimming Test (FST); Splash Test (ST) with latency time (sec) and self-care (sec) measurement. • b. antianxiety: Open Field Test with measurement of distance traveled (m), time spent in the wall (sec), time spent in the center (sec), center entries (n); Freezing Test (sec). • c. on memory, learning, coordination of motor skills, fear conditioning: Rotarod Test with measure of Latency to Fall, repeated after training to evaluate motor learning. • 2. We tested the protective effects with the following procedure: • a. individually: βCP, FE, βBA, DHA and HA4; • b. in association with pairs: βCP+HA4, FE+HA4, βBA+HA4, FE+βCP, βBA+FE, βBA+βCP. • c. in association, all four together: βCP+FE+βBA+HA4 • d. versus control (SHAM), • e. using the mouse model of an Aβ-induced depressive phenotype. • 3. These behavioral tests were integrated with serotonin, dopamine, noradrenaline and their metabolites prefrontal cortex and hippocampus measurement. • 4. Furthermore, we evaluated the cortical and hippocampal glutamate (GLU) levels in mice treated with AP and subsequently we tested the ability of βCP, FE, βBA and HA4, to modulate this neurochemical parameter.
βCP, FE e βBA (Merck, Cayman Chemical Company) was dissolved in sunflower oil, this vehicle was chosen in order to maintain a better tasting and higher density of the final solution thus reducing reflux through the digestive tract.
(§1) Ten μl of the solution (or vehicle alone) were administered sublingually to mice. Brain βCP, FE e βBA were quantified in a separate subset of mice at 5, 15 and 30 min after their administration.
Open Field Test. Mice were placed in an open field arena and allowed to explore for 30 min [Lama A et al. 2021]. After each trial, the arena floor was cleaned with 70% ethanol to avoid inter-assay bias. The movements of mice were video recorded and analyzed by ANY-maze tracking software (Ugo Basile-Varese, Gemonio, Italy). Locomotion was evaluated through total crossing measurements.

kynurenine (KYN) = test: Kynurenine levels in mice treated with Aβ icv (FIG. 6); assay type: in vivo; conditions: prefrontal cortex and hippocampus, HA4 0.2 mg/mouse
Procedure: (§2) The Aβ1-42, obtained from Tocris (Bristol, UK), was dissolved in sterile double-distilled pyrogenic-free water, as vehicle, to obtain a final concentration 4 μM [Colaianna M et al. 2010]. Mice were anesthetized with a solution (0.85 in ml/kg, i.p.), containing ketamine (Sigma Aldrich, Milan, Italy, 100 mg/10 ml), xylazine (Sigma Aldrich, Milan, Italy, 100 mg/10 ml) and acepromazine (prequillant, ATI Azienda Terapeutica Veterinaria Srl, 10 mg/10 ml) dissolved in saline solution. Animals were secured in a stereotaxic frame (David Kopf Instruments, Tujunga, CA, USA) and the peptide injection was accomplished in the lateral ventricle of mice at the following coordinates: AP=−0.2, ML=+1 e DV=2 relative to bregma, according to the atlas of Paxinos and Franklin [Paxinos G and Franklin K B J 2019]. […] At the time of dissection, the correct needle track was assessed. […]
(§3) 5-HT, noradrenaline (NA), and KYN levels were measured in the PFC and HIPP of mice by HPLC coupled with an electrochemical detector (Ultimate ECD, Thermo Scientific Dionex, Milan, Italy) as already reported [Francavilla M et al. 2012, Morgese M G et al. 2016]. […] GLU concentrations were determined by HPLC coupled with fluorescence detection (emission length 460 nm; excitation length 340 nm), as previously published [Francavilla M et al. 2012]. […]

glutamate (GLU) = test: Glutamate levels in mice treated with Aβ icv (FIG. 7); assay type: in vivo; conditions: after 7 days
Procedure: as §2, §3

CD11b = CD11b protein levels in mice treated with Aβ icv, Western blotting (FIG. 8); assay type: in vivo; conditions: PFC and HIPP, HA4 0.2 mg/mouse
Procedure: (§4) The total amount of proteins was measured in homogenates by using Pierce BCA Assay (Thermo Fisher Scientific, Cleveland, OH, USA). […] After HRP-conjugated specific antibody incubation, ECL reagent (Bio-Rad Laboratories Inc., Segrate (MI), Italy) was added to the immune complex and chemiluminescence was detected by ChemiDoc MP system (Bio-Rad Laboratories Inc., Segrate (MI), Italy). Optical densities of the bands were measured using Image J software (http://rsb.info.nih.gov/ij/ accessed on 15 Mar. 2021) and normalized against bands relative to -actin (1:5,000, Abcam, Cambridge, UK).

GFAP = GFAP protein levels in mice treated with Aβ icv, Western blotting (FIG. 9); assay type: in vivo; conditions: PFC and HIPP, HA4 0.2 mg/mouse
Procedure: as §4

[1] = Pharmacokinetics of βBA and AKBA via os in healthy volunteers, fasted and hyperlipidic meal (Sterk V et al. 2004); assay type: in vivo, humans; conditions: healthy volunteers
From the text: Indeed, βBA has a concentration in the blood: • at least 6 times higher than AKBA both in the fasting condition and with a hyperlipidic meal; • increased by 6 times after hyperlipidic meal so that the plasma/os ratio passes from 0.09 to 0.55.

[2] = Plasma and brain levels of βBA and AKBA via os in mice (Gerbeth K et al. 2013); assay type: in vivo
From the text: βBA appears not to undergo blood-brain barrier. According to the data of Gerbeth K et al. 2013, brain levels of AKBA were very low, resulting 0.4 per AKBA in the brain/plasma ratio (but 0.81 according to Weber C C et al. 2006). In contrast, the § BA concentration in the brain was even higher than that found in the blood with 32% increase (See Table 1).

[3] = healthy volunteers, via os, cited from earlier work
[4] = cited from earlier work
[5] = cited from earlier work; remark: listed apart in the source
[6] = Weber C C et al. 2006; cited from earlier work
[7] = mice; cited from earlier work
[8] = cited from earlier work; remark: listed apart in the source
[9] = mice, cited from earlier work
mice treated with Aβ icv = test: Splash test in SHAM mice and mice treated with Aβ icv (FIG. 4); assay type: in vivo; conditions: after 7 days, HA4 200 μg, βCP 50 μg, βBA 100 μg, FE 50 μg sublingually
Procedure: The Aβ1-42, obtained from Tocris (Bristol, UK), was dissolved in sterile double-distilled pyrogenic-free water, as vehicle, to obtain a final concentration 4 μM [Colaianna M et al. 2010]. Mice were anesthetized with a solution (0.85 in ml/kg, i.p.), containing ketamine (Sigma Aldrich, Milan, Italy, 100 mg/10 ml), xylazine (Sigma Aldrich, Milan, Italy, 100 mg/10 ml) and acepromazine (prequillant, ATI Azienda Terapeutica Veterinaria Srl, 10 mg/10 ml) dissolved in saline solution. […] At the time of dissection, the correct needle track was assessed. […]
as §1
All behavioral experiments were conducted at 5 or 30 min after sublingual administrations of βBA or vehicle in mice treated with SHAM or AP. Based on the observed behavioral results, neurochemical and biochemical quantifications were performed 30 min after administration of βCP, FE, and βBA or vehicle in SHAM- or Aβ-treated mice.
Splash test. […] The test was videotaped and later an observer, blind to the trial, scored for latency to the first grooming event and duration of self-care behavior during the period of the test (5 min).

dopamine (DA) = test: Dopamine (DA) levels in Aβ icv-treated mice (FIG. 5c); assay type: in vivo; conditions: HIPP
[10] = in vivo; cited from earlier work
[11] = cited from earlier work; remark: listed apart in the source
[12] = intact animals, hyaluronic acid only (FIG. 3)

In the case of CC(=O)N[C@H]1[C@H](O[C@H]2[C@H](O)[C@@H](O)[C@H](O[C@H]3[C@H](O)[C@@H](CO)OC(O)[C@@H]3NC(C)=O)O[C@@H]2C(=O)O)O[C@H](CO)[C@@H](O)[C@@H]1O[C@@H]1O[C@H](C(=O)O)[C@@H](O)[C@H](O)[C@H]1O (stereo partly shown) [HA4, hyaluronic acid HA4 tetrasaccharide], the freezing (intact mice; [12]) is reported as “clear anxiolytic and antidepressant effect”, the locomotor activity (intact mice; [12]) is reported as “does not create deficits in the animal's locomotor activity” and the “effect in behavioral tests, individually” value (intact mice) is reported as “antidepressant and anxiolytic effect”. For the same molecule, the Kynurenine levels (kynurenine (KYN)) was “significant reduction”, the Glutamate levels (glutamate (GLU)) was “increase in glutamate” and the CD11b protein levels (CD11b) was “Significant reduction of CD11b in both PFC and HIPP”. The GFAP protein levels (GFAP) was “significant reduction; also recorded: removes GFAP alterations in both PFC and HIPP”.
With CC(=O)O[C@@H]1CC[C@@]2(C)[C@@H](CC[C@]3(C)[C@@H]2C(=O)C=C2[C@@H]4[C@@H](C)[C@H](C)CC[C@]4(C)CC[C@]23C)[C@@]1(C)C(=O)O [AKBA, acetyl-11-keto-beta-boswellic acid] the Δos/plasma ([1]; fasted conditions) was 68 fasted, the Δos/plasma ([1]; hyperlipidic fed conditions) was 15 hyperlipidic and the Δos/brain [2] was 204. For the same molecule, the Δos/plasma [2] was 82, the Δplasma/brain [2] was 2.5 and the “concentration in the plasma” value ([3]; fasted conditions) was 6 fasted ng/g o ng/ml. For the same molecule, the “concentration in the plasma” value ([3]; hyperlipidic fed conditions) was 28 hyperlipidic ng/g o ng/ml, the blood concentration ([4]; 80 mg AKBA to 13 patients, found in only one of them) was 15.5 ng/mL and the “concentration in the plasma” value ([4]; patients, via os) was 0-15 ng/g o ng/ml. For the same molecule, the brain/plasma ratio ([5]; Gerbeth K et al. 2013) was 0.4, the “reduction of blood concentration compared to the dose introduced orally” value ([5]; mice, via os, intestinal mucosa to blood) was 80 times and the “concentration in the brain” value ([5]; mice, via os) was 37.5 ng/g o ng/ml. For the same molecule, the “concentration in the plasma” value ([5]; mice, via os) was 93 ng/g o ng/ml, the “reduction of concentration when crossing the blood-brain barrier” value ([5]; mice) was “more than twice” and the brain/plasma ratio [6] was 0.81.
In the case of CC/C=C\C/C=C\C/C=C\C/C=C\C/C=C\C/C=C\CCC(=O)O [DHA, docosahexaenoic acid], the safe dose [7] is listed as at most 3.2 g/kg/day, the harmless dose ([8]; adult humans) is listed as “at least 7.5 g/day” and the safe dose ([8]; children) is listed as “at least 315 mg/day”.
For Hyaluronic acid, the LD50 ([9]; intraperitoneum) is given as 1,500 mg/kg, the LD50 ([9]; subcutaneous) is given as > 4,000 mg/kg and the LD50 ([9]; via os) is given as > 2,400 mg/kg.
In the case of CC1=CC=C[C@]2(C)Cc3occ(C)c3C[C@@H]12 [FE, furanoeudesma-1,3-diene], the “lowest dose showing antidepressant effects” value (intact mice) is reported as 5 mg/kg and the “effect in behavioral tests, individually” value (intact mice) is reported as “antidepressant and anxiolytic effect”.
For C=C1CC/C=C(\C)CC[C@@H]2[C@@H]1CC2(C)C [βCP, β-caryophyllene], the “lowest dose showing antidepressant effects” value (intact mice) was 5 mg/kg, the “effect in behavioral tests, individually” value (intact mice) was “antidepressant and anxiolytic effect” and the “Splash test latency time (antidepressant effect)” value (mice treated with Aβ icv) was “antidepressant effect”. The “Dopamine (DA) levels” value (dopamine (DA)) was “increase in dopaminergic activity in HIPP”, the “toxic dose (category 5 substance, OECD guidelines)” value [10] was “greater than 2,000 mg/kg” and the pathological changes ([11]; mice, 100 mg/kg i.p.) was “no evidence of pathological changes”. The LD50 ([11]; mouse, in vivo, ip) was 316 mg/kg.
